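Five compound concentrations were applied to cells in 96-well plates for 48 hours; endpoints were derived by simple linear interpolation of the resulting dose-response curve. GI50 marks 50% less growth. The concentration for full growth arrest is given as TGI.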
Legend:
Test in all cases: inhibition of tumour cell growth, NCI panel, 48 h
[1] = tested on: NCI-H226 lung
[2] = tested on: HCC-2998 colon
[3] = tested on: COLO 205 colon
[4] = tested on: DU-145 prostate
[5] = tested on: SK-MEL-2 melanoma
[6] = tested on: HCT-116 colon
[7] = tested on: HOP-62 NSCLC
[8] = tested on: K-562 leukemia
[9] = tested on: M14 melanoma
[10] = tested on: OVCAR-4 ovarian
[11] = tested on: ACHN renal
[12] = tested on: TK-10 renal
[13] = tested on: HCT-15 colon
[14] = tested on: SK-MEL-5 melanoma
[15] = tested on: A549 NSCLC
[16] = tested on: MALME-3M melanoma
[17] = tested on: SK-OV-3 ovarian
[18] = tested on: MDA-MB-231 breast
[19] = tested on: 786-0 renal
[20] = tested on: HT29 colon
[21] = tested on: EKVX NSCLC
[22] = tested on: UACC-62 melanoma
[23] = tested on: SF-295 CNS
[24] = tested on: NCI-H460 lung
[25] = tested on: U251 CNS
[26] = tested on: MDA-MB-435
[27] = tested on: MDA-N
[28] = tested on: OVCAR-5 ovarian
[29] = tested on: SK-MEL-28 melanoma
[30] = tested on: UO-31 renal
[31] = tested on: PC-3 prostate
[32] = tested on: SNB-19 CNS
[33] = tested on: OVCAR-3 ovarian
[34] = tested on: HL-60(TB) leukemia
[35] = tested on: MOLT-4 leukemia
[36] = tested on: RXF 393 renal
[37] = tested on: RPMI-8226 leukemia
[38] = tested on: NCI-H522 lung
[39] = tested on: OVCAR-8 ovarian
[40] = tested on: T-47D breast
[41] = tested on: SNB-75 CNS
[42] = tested on: CCRF-CEM leukemia
[43] = tested on: SF-268 CNS
[44] = tested on: IGROV1 ovarian
[45] = tested on: MCF7 breast
[46] = tested on: CAKI-1 renal
[47] = tested on: SF-539 CNS
[48] = tested on: NCI/ADR-RES ovarian
[49] = tested on: HS 578T breast
[50] = tested on: A498 renal
[51] = tested on: KM12 colon
[52] = tested on: LOX IMVI melanoma
[53] = tested on: NCI-H23 lung
[54] = tested on: UACC-257 melanoma
[55] = tested on: SW-620 colon
[56] = tested on: HOP-92 NSCLC
[57] = tested on: SN12C renal
[58] = tested on: SR leukemia

## COC(=O)c1cc2c3c(cc(NCCN)c2[nH]1)N(C(=O)c1cc2cc(OC)c(OC)c(OC)c2[nH]1)CC3CCl (centres undefined)
[1]
  TGI: 0.178 µM
[2]
  TGI: 0.182 µM
[3]
  TGI: 0.146 µM
[4]
  TGI: 0.0516 µM
[5]
  TGI: 0.164 µM
[6]
  TGI: 0.0256 µM
[7]
  TGI: 0.48 µM
[8]
  TGI: > 100 µM
[9]
  TGI: 0.253 µM
[10]
  TGI: 0.31 µM
[11]
  TGI: 0.251 µM
[12]
  TGI: 2.95 µM
[13]
  TGI: 1.42 µM
[14]
  TGI: 0.165 µM
[15]
  TGI: 0.481 µM
[16]
  TGI: 0.123 µM
[17]
  TGI: 5.12 µM
[18]
  TGI: 0.467 µM
[19]
  TGI: 0.283 µM
[20]
  TGI: 0.213 µM
[21]
  TGI: 0.827 µM
[22]
  TGI: 0.176 µM
[23]
  TGI: 0.858 µM
[24]
  TGI: 0.536 µM
[25]
  TGI: 0.0366 µM
[26]
  TGI: 0.293 µM
[27]
  TGI: 0.207 µM
[28]
  TGI: 0.42 µM
[29]
  TGI: 0.48 µM
[30]
  TGI: 0.65 µM
[31]
  TGI: 1.01 µM
[32]
  TGI: 0.0517 µM
[33]
  TGI: 0.569 µM

## C[C@H]1CCC/C=C/[C@@H]2C[C@H](N)C[C@H]2[C@H](O)/C=C/C(=O)O1
[1]
  GI50: > 100 µM
  TGI: > 100 µM
[2]
  GI50: > 100 µM
  TGI: > 100 µM
[34]
  GI50: 98.4 µM
  TGI: > 100 µM
[35]
  GI50: 77.3 µM
  TGI: > 100 µM
[36]
  GI50: > 100 µM
  TGI: > 100 µM
[3]
  GI50: > 100 µM
  TGI: > 100 µM
[4]
  GI50: > 100 µM
  TGI: > 100 µM
[5]
  GI50: > 100 µM
  TGI: > 100 µM
[6]
  GI50: > 100 µM
  TGI: > 100 µM
[37]
  GI50: > 100 µM
  TGI: > 100 µM
[7]
  GI50: > 100 µM
  TGI: > 100 µM
[8]
  GI50: > 100 µM
  TGI: > 100 µM
[9]
  GI50: > 100 µM
  TGI: > 100 µM
[10]
  GI50: > 100 µM
  TGI: > 100 µM
[11]
  GI50: > 100 µM
  TGI: > 100 µM
[12]
  GI50: > 100 µM
  TGI: > 100 µM
[38]
  GI50: > 100 µM
  TGI: > 100 µM
[13]
  GI50: > 100 µM
  TGI: > 100 µM
[14]
  GI50: 77.1 µM
  TGI: > 100 µM
[39]
  GI50: > 100 µM
  TGI: > 100 µM
[15]
  GI50: > 100 µM
  TGI: > 100 µM
[16]
  GI50: 52.8 µM
  TGI: > 100 µM
[40]
  GI50: > 100 µM
  TGI: > 100 µM
[41]
  GI50: 39.9 µM
  TGI: > 100 µM
[17]
  GI50: > 100 µM
  TGI: > 100 µM
[18]
  GI50: > 100 µM
  TGI: > 100 µM
[42]
  GI50: 83.2 µM
  TGI: > 100 µM
[43]
  GI50: > 100 µM
  TGI: > 100 µM
[44]
  GI50: > 100 µM
  TGI: > 100 µM
[45]
  GI50: > 100 µM
  TGI: > 100 µM
[46]
  GI50: > 100 µM
  TGI: > 100 µM
[19]
  GI50: > 100 µM
  TGI: > 100 µM
[20]
  GI50: > 100 µM
  TGI: > 100 µM
[47]
  GI50: > 100 µM
  TGI: > 100 µM
[21]
  GI50: > 100 µM
  TGI: > 100 µM
[48]
  GI50: > 100 µM
  TGI: > 100 µM
[49]
  GI50: > 100 µM
  TGI: > 100 µM
[22]
  GI50: > 100 µM
  TGI: > 100 µM
[23]
  GI50: > 100 µM
  TGI: > 100 µM
[50]
  GI50: 67.9 µM
  TGI: > 100 µM
[24]
  GI50: > 100 µM
  TGI: > 100 µM
[25]
  GI50: > 100 µM
  TGI: > 100 µM
[51]
  GI50: 71.4 µM
  TGI: > 100 µM
[52]
  GI50: > 100 µM
  TGI: > 100 µM
[26]
  GI50: > 100 µM
  TGI: > 100 µM
[27]
  GI50: > 100 µM
  TGI: > 100 µM
[28]
  GI50: > 100 µM
  TGI: > 100 µM
[53]
  GI50: > 100 µM
  TGI: > 100 µM
[29]
  GI50: > 100 µM
  TGI: > 100 µM
[54]
  GI50: > 100 µM
  TGI: > 100 µM
[55]
  GI50: > 100 µM
  TGI: > 100 µM
[30]
  GI50: > 100 µM
  TGI: > 100 µM
[56]
  GI50: > 100 µM
  TGI: > 100 µM
[57]
  GI50: > 100 µM
  TGI: > 100 µM
[31]
  GI50: > 100 µM
  TGI: > 100 µM
[32]
  GI50: > 100 µM
  TGI: > 100 µM
[33]
  GI50: > 100 µM
  TGI: > 100 µM
[58]
  GI50: 74 µM
  TGI: > 100 µM
